Source: patent US20100075852A1, “HERBICIDE COMBINATION COMPRISING DIMETHOXYTRIAZINYL-SUBSTITUTED DIFLUOROMETHANESULFONYLANILIDES” (BAYER CROPSCIENCE AG, priority 2008, published 2010)
Where two headings read alike, the source gives them in different places.

Key:
Assay in all cases: Post-emergence action against weeds, greenhouse pot test, visual scoring
Assay type in all cases: in vivo
[1] = system: Abuthilon theophrasti (ABUTH); settings: 21 DAT, rate (5) A-1 12
Method: (§1) Seeds or rhizome pieces of mono- and dicotyledonous harmful and useful plants were placed in peat pots (diameter 4 cm) filled with sandy loam and then covered with soil. The pots were kept in a greenhouse under optimum conditions. In addition, harmful plants encountered in paddy rice cultivation were cultivated in pots with a water level 2 cm above the soil surface.
(§2) About three weeks after the start of the cultivation, the test plants were treated at the 2- to 3-leaf stage. The herbicides, formulated as powder or liquid concentrates, were, either alone or in the combinations according to the invention, sprayed in various dosages on to the green parts of the plants using an application rate of 600 l of water/ha (converted). For further cultivation of the plants, the pots were then again kept under optimum conditions in a greenhouse.
(§3) The visual scoring of the herbicidal effects was carried out in intervals up to 21 days after the treatment. Scoring was carried out in percent in comparison to the untreated control plants. 0%=no herbicidal activity, 100%=complete herbicidal activity=complete kill.
(§4) The percentages from the treatments with the herbicides alone (=individual application) and with the combinations according to the invention (=mixtures) were employed to calculate interactions using the method of Colby.
(§5) • A, B=activity of components A and B in percent at a dosage of a and b g of ai/ha (=gramm of active substance per hectare), respectively. • E=expected value in % at a dosage of a+b g of ai/ha.

Avena fatua (AVEFA) = settings: AVEFA; for inhibition at 4 g/ha / inhibition at 12 g/ha: Avena fatua, post-emergence, read-out: % activity found; for inhibition at 4 g/ha: 4 g of ai/ha alone; for inhibition at 12 g/ha: 12 g of ai/ha alone
Method: as §1, §2, §3, §4, §5

[2] = system: Cyperus esculentus (CYPES); settings: CYPES, 21 DAT
Method: as §1, §2, §3, §4, §5

[3] = system: Fallopia (ex Polygonum) convolvulus (POLCO); settings: POLCO, 21 DAT
Method: as §1, §2, §3, §4, §5

[4] = system: Lolium multiflorum (LOLMU); settings: LOLMU; for inhibition at 4 g/ha / inhibition at 12 g/ha: Lolium multiflorum, post-emergence, read-out: % activity found; for inhibition at 4 g/ha: 4 g of ai/ha alone; for inhibition at 12 g/ha: 12 g of ai/ha alone
Method: as §1, §2, §3, §4, §5

[5] = system: Matricaria inodora (MATIN); settings: MATIN, 21 DAT
Method: as §1, §2, §3, §4, §5

[6] = system: Pharbitis purpurea (PHBPU); settings: 21 DAT
Method: as §1, §2, §3, §4, §5

Stellaria media (STEME) = settings: 10 DAT
Method: as §1, §2, §3, §4, §5

[7] = system: Triticum aestivum (TRZAS); settings: for (7) activity found: rate (5) A-1 12; for inhibition at 4 g/ha / inhibition at 12 g/ha: Triticum aestivum, post-emergence, read-out: % activity found; for inhibition at 4 g/ha: 4 g of ai/ha alone; for inhibition at 12 g/ha: 12 g of ai/ha alone
Method: as §1, §2, §3, §4, §5

Veronica persica (VERPE) = settings: 21 DAT, rate (5) A-1 12
Method: as §1, §2, §3, §4, §5

Viola tricolor (VIOTR) = settings: for (7) activity found: rate (5) A-1 12
Method: as §1, §2, §3, §4, §5

Zea mays (ZEAMX) = settings: ZEAMX; for inhibition at 4 g/ha / inhibition at 12 g/ha: Zea mays, post-emergence, read-out: % activity found; for inhibition at 4 g/ha: 4 g of ai/ha alone; for inhibition at 12 g/ha: 12 g of ai/ha alone
Method: as §1, §2, §3, §4, §5

[8] = system: Alopecurus myosuroides (ALOMY); settings: ALOMY, read-out: % activity found; for inhibition at 4 g/ha: 4 g of ai/ha alone; for inhibition at 12 g/ha: 12 g of ai/ha alone
Method: as §1, §2, §3
(§6) The percentages from the treatments with the herbicides alone (=individual application) and with the combinations according to the invention (=mixtures) were employed to calculate interactions using the method of Colby. When the observed efficacies of the mixtures exceed the formal sum of the values of the tests with individual applications, they also exceed the expected value according to Colby, which is calculated using the formula below (cf. S. R. Colby; in Weeds 15 (1967) pp. 20 to 22):
as §5

Oryza sativa (ORYSA) = settings: ORYSA, read-out: % activity found; for inhibition at 4 g/ha: 4 g of ai/ha alone; for inhibition at 12 g/ha: 12 g of ai/ha alone
Method: as §1, §2, §3, §6, §5

Setaria viridis (SETVI) = settings: 504 h, SETVI, 21 DAT, read-out: % activity found
Method: as §1, §2, §3, §6, §5

SMILES: COc1nc(OC)nc(C(=O)c2cccc(F)c2N(C)S(=O)(=O)C(F)F)n1 [A-1]
- (7) activity found [1]: 85%
- (7) activity found (Avena fatua (AVEFA); 21 DAT, rate (5) A-1 4): 10%
- (7) activity found (Avena fatua (AVEFA); 21 DAT, rate (5) A-1 12): 30%
- inhibition at 4 g/ha (Avena fatua (AVEFA); 240 h, 10 DAT): 40%
- inhibition at 12 g/ha (Avena fatua (AVEFA); 240 h, 10 DAT): 50%
- inhibition at 4 g/ha (Avena fatua (AVEFA); 504 h, 21 DAT): 10%
- inhibition at 12 g/ha (Avena fatua (AVEFA); 504 h, 21 DAT): 30%
- (7) activity found ([2]; rate (5) A-1 4): 80%
- (7) activity found ([2]; rate (5) A-1 12): 80%
- (7) activity found ([2]; rate (5) A-1 12 (Table 85)): 80%
- inhibition at 4 g/ha ([2]; Cyperus esculentus, post-emergence, 504 h, 4 g of ai/ha alone, read-out: % activity found): 80%
- inhibition at 12 g/ha ([2]; Cyperus esculentus, post-emergence, 504 h, 12 g of ai/ha alone, read-out: % activity found): 80%
- inhibition at 4 g/ha ([3]; Fallopia convolvulus, post-emergence, 504 h, 4 g of ai/ha alone, read-out: % activity found): 75%
- inhibition at 12 g/ha ([3]; Fallopia convolvulus, post-emergence, 504 h, 12 g of ai/ha alone, read-out: % activity found): 70%
- (7) activity found ([3]; rate (5) A-1 4): 75%
- (7) activity found ([3]; rate (5) A-1 12): 70%
- (7) activity found ([4]; 10 DAT, rate (5) A-1 4): 0%
- (7) activity found ([4]; 10 DAT, rate (5) A-1 12): 10%
- inhibition at 4 g/ha ([4]; 240 h, 10 DAT): 0%
- inhibition at 12 g/ha ([4]; 240 h, 10 DAT): 10%
- inhibition at 4 g/ha ([4]; 504 h, 21 DAT): 0%
- inhibition at 12 g/ha ([4]; 504 h, 21 DAT): 10%
- (7) activity found ([5]; rate (5) A-1 4): 50%
- (7) activity found ([5]; rate (5) A-1 12): 60%
- inhibition at 4 g/ha ([5]; Tripleurospermum inodorum, post-emergence, 504 h, 4 g of ai/ha alone, read-out: % activity found): 50%
- inhibition at 12 g/ha ([5]; Tripleurospermum inodorum, post-emergence, 504 h, 12 g of ai/ha alone, read-out: % activity found): 60%
- (7) activity found ([6]; rate (5) A-1 4): 60%
- (7) activity found ([6]; rate (5) A-1 12): 65%
- (7) activity found (Stellaria media (STEME); rate (5) A-1 4): 70%
- (7) activity found (Stellaria media (STEME); rate (5) A-1 12): 70%
- (7) activity found ([7]; 10 DAT): 0%
- (7) activity found ([7]; 21 DAT): 0%
- inhibition at 4 g/ha ([7]; 240 h, 10 DAT): 0%
- inhibition at 12 g/ha ([7]; 240 h, 10 DAT): 0%
- inhibition at 4 g/ha ([7]; 504 h, 21 DAT): 0%
- inhibition at 12 g/ha ([7]; 504 h, 21 DAT): 0%
- (7) activity found (Veronica persica (VERPE)): 40%
- (7) activity found (Viola tricolor (VIOTR); 10 DAT): 20%
- (7) activity found (Viola tricolor (VIOTR); 21 DAT): 10%
- inhibition at 4 g/ha (Viola tricolor (VIOTR); Viola tricolor, post-emergence, 504 h, 21 DAT, 4 g of ai/ha alone, read-out: % activity found): 0%
- inhibition at 12 g/ha (Viola tricolor (VIOTR); Viola tricolor, post-emergence, 504 h, 21 DAT, 12 g of ai/ha alone, read-out: % activity found): 10%
- (7) activity found (Zea mays (ZEAMX); 10 DAT, rate (5) A-1 4): 0%
- (7) activity found (Zea mays (ZEAMX); 10 DAT, rate (5) A-1 12): 0%
- (7) activity found (Zea mays (ZEAMX); 21 DAT, rate (5) A-1 4): 0%
- (7) activity found (Zea mays (ZEAMX); 21 DAT, rate (5) A-1 4 (Table 80)): 0%
- (7) activity found (Zea mays (ZEAMX); 21 DAT, rate (5) A-1 12): 0%
- (7) activity found (Zea mays (ZEAMX); 21 DAT, rate (5) A-1 12 (Table 80)): 0%
- inhibition at 4 g/ha (Zea mays (ZEAMX); 240 h, 10 DAT): 0%
- inhibition at 12 g/ha (Zea mays (ZEAMX); 240 h, 10 DAT): 0%
- inhibition at 4 g/ha (Zea mays (ZEAMX); 504 h, 21 DAT): 0%
- inhibition at 12 g/ha (Zea mays (ZEAMX); 504 h, 21 DAT): 0%
- inhibition at 4 g/ha ([8]; 240 h, 10 DAT): 40%
- inhibition at 12 g/ha ([8]; 240 h, 10 DAT): 40%
- inhibition at 4 g/ha ([8]; 504 h, 21 DAT): 40%
- inhibition at 12 g/ha ([8]; 504 h, 21 DAT): 50%
- inhibition at 4 g/ha (Oryza sativa (ORYSA); 240 h, 10 DAT): 10%
- inhibition at 12 g/ha (Oryza sativa (ORYSA); 240 h, 10 DAT): 10%
- inhibition at 4 g/ha (Oryza sativa (ORYSA); 504 h, 21 DAT): 0%
- inhibition at 12 g/ha (Oryza sativa (ORYSA); 504 h, 21 DAT): 10%
- inhibition at 4 g/ha (Setaria viridis (SETVI); 4 g of ai/ha alone): 0%
- inhibition at 12 g/ha (Setaria viridis (SETVI); 12 g of ai/ha alone): 20%
